Assay results as given in ChEMBL document CHEMBL1133239, “Acid catalyzed Michael additions to artemisitene” (2000).

What was measured:
[1] = test system: Plasmodium falciparum; assay: Relative antimalarial activity compared to artemisinin against Plasmodium falciparum D6; assay type: functional
[2] = test system: Plasmodium falciparum; assay: Relative antimalarial activity compared to artemisinin against Plasmodium falciparum W-2; assay type: functional

Compound `C[C@@H]1CC[C@H]2[C@@H](CC#N)C(=O)O[C@@H]3O[C@@]4(C)CC[C@@H]1[C@]32OO4` has a Relative activity [1] of 0.17 and a Relative activity [2] of 0.036.

For `C[C@@H]1CC[C@H]2[C@@H](CC3C=CC(=O)O3)C(=O)O[C@@H]3OC4(C)CC[C@@H]1[C@]32OO4` (single isomer, unassigned), the Relative activity [1] was 0.058 and the Relative activity [2] was 0.03.

For `C[C@@H]1CC[C@H]2[C@@H](CC/C(=C/C(=O)c3ccccc3)c3ccccc3)C(=O)O[C@@H]3OC4(C)CC[C@@H]1[C@]32OO4` (single isomer, unassigned), the Relative activity [1] was 6.2 and the Relative activity [2] was 0.55.

Compound `C[C@@H]1CC[C@H]2[C@H](CC3C=CC(=O)O3)C(=O)O[C@@H]3OC4(C)CC[C@@H]1[C@]32OO4` (single isomer, unassigned) has a Relative activity [1] of 0.33 and a Relative activity [2] of 0.037.

`C[C@@H]1CC[C@H]2[C@@H](CC3CCCC3=O)C(=O)O[C@@H]3OC4(C)CC[C@@H]1[C@]32OO4` (single isomer, unassigned) gave a Relative activity [1] of 0.47 and a Relative activity [2] of 0.29.

For `C[C@@H]1CC[C@H]2[C@@H](CCC(=O)C(C)(C)C)C(=O)O[C@@H]3OC4(C)CC[C@@H]1[C@]32OO4` (single isomer, unassigned), the Relative activity [1] was 7.4 and the Relative activity [2] was 1.13.

`C[C@@H]1CC[C@H]2[C@H](CCC(=O)C(C)(C)C)C(=O)O[C@@H]3OC4(C)CC[C@@H]1[C@]32OO4` (single isomer, unassigned) was tested, and the Relative activity [1] was 4.5 and the Relative activity [2] was 0.74.

Work on `C[C@@H]1CC[C@H]2[C@H](CC#N)C(=O)O[C@@H]3OC4(C)CC[C@@H]1[C@]32OO4` (single isomer, unassigned) yielded a Relative activity [1] of 0.17 and a Relative activity [2] of 0.036.

`C=CCC[C@H]1C(=O)O[C@@H]2OC3(C)CC[C@H]4[C@H](C)CC[C@@H]1[C@@]24OO3` (single isomer, unassigned) was tested, and the Relative activity [1] was 2.3 and the Relative activity [2] was 2.9.
